Measurements reported in ChEMBL document CHEMBL4706657, “The Development of Hsp90β-Selective Inhibitors to Overcome Detriments Associated with pan-Hsp90 Inhibition” (J Med Chem, 2021).
Values belong to the compound of their own block, whether it stands above or below them. The source made the active and inactive calls. The rule behind the calls is not given here.

Key:
[1] = biological target: T1, Heat shock protein HSP 90-beta (Homo sapiens, UniProt P08238)
Description: Inhibition of FITC-GDA binding to human HSP90-beta incubated for 2 hrs by fluorescence polarization assay

[2] = biological target: T2, Heat shock protein HSP 90-alpha (Homo sapiens, UniProt P07900)
Description: Inhibition of FITC-GDA binding to human HSP90-alpha incubated for 2 hrs by fluorescence polarization assay

SK-BR-3 [3] = assay: Induction of heat shock response in human SK-BR-3 cells at 10 uM incubated for 18 hrs by Western blot analysis; assay type: cell-based; details: sk-br-3, 18 h
Endoplasmin = Endoplasmin (Canis lupus familiaris, UniProt P41148); assay: Inhibition of FITC-GDA binding to dog GRP94 incubated for 2 hrs by fluorescence polarization assay
[4] = tested on: Panel NCI-60 (60 carcinoma cell lines); assay: Growth inhibition of human NCI60 cells incubated for 72 hrs by Cell Titer-Glo luminescent cell viability assay; assay type: functional
[5] = biological target: T1, Heat shock protein HSP 90-beta; details: HCT-116, dose 300-1000 nM, time 24.0 hrs
[6] = biological target: T2, Heat shock protein HSP 90-alpha; details: HCT-116, dose 300-1000 nM, time 24.0 hrs
[7] = biological target: T1, Heat shock protein HSP 90-beta; details: HCT-116, dose 300-1000 nM, time 24.0 hrs; remark: listed apart in the source
[8] = biological target: T1, Heat shock protein HSP 90-beta; details: HCT-116, dose 300-1000 nM, time 24.0 hrs; remark: listed apart in the source
[9] = biological target: T1, Heat shock protein HSP 90-beta; details: HCT-116, dose 300-1000 nM, time 24.0 hrs; remark: listed apart in the source
SK-BR-3 [10] = assay: Induction of heat shock response in human SK-BR-3 cells at 1 uM incubated for 18 hrs by Western blot analysis; assay type: cell-based; details: sk-br-3, 18 h
UMUC3 = details: time 72 hrs
PC-3 = assay: Growth inhibition of human PC-3 cells incubated for 72 hrs by Cell Titer-Glo luminescent cell viability assay; assay type: functional
[11] = Growth inhibition of human LNCaP-LN3 cells incubated for 72 hrs by Cell Titer-Glo luminescent cell viability assay; assay type: functional

T1 sequence (P08238 whole entry): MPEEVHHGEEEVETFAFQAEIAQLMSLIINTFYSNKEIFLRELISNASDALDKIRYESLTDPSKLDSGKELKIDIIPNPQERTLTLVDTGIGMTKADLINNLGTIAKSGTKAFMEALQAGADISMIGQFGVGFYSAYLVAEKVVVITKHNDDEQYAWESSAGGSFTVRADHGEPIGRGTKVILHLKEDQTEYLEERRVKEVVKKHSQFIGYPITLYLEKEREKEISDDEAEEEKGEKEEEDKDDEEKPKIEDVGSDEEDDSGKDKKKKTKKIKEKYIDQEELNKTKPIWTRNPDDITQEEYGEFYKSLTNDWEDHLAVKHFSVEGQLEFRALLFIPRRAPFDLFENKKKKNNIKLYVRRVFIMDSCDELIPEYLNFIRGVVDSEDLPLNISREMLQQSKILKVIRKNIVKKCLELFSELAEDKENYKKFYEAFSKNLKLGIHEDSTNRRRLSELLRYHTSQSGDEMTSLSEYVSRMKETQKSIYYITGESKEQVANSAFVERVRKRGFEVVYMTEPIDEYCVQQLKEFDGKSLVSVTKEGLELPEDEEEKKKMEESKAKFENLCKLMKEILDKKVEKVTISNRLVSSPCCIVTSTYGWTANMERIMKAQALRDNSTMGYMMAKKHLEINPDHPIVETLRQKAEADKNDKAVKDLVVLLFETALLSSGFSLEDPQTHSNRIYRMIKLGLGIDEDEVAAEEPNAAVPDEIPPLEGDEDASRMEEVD
Sequence of Endoplasmin (P41148 whole entry): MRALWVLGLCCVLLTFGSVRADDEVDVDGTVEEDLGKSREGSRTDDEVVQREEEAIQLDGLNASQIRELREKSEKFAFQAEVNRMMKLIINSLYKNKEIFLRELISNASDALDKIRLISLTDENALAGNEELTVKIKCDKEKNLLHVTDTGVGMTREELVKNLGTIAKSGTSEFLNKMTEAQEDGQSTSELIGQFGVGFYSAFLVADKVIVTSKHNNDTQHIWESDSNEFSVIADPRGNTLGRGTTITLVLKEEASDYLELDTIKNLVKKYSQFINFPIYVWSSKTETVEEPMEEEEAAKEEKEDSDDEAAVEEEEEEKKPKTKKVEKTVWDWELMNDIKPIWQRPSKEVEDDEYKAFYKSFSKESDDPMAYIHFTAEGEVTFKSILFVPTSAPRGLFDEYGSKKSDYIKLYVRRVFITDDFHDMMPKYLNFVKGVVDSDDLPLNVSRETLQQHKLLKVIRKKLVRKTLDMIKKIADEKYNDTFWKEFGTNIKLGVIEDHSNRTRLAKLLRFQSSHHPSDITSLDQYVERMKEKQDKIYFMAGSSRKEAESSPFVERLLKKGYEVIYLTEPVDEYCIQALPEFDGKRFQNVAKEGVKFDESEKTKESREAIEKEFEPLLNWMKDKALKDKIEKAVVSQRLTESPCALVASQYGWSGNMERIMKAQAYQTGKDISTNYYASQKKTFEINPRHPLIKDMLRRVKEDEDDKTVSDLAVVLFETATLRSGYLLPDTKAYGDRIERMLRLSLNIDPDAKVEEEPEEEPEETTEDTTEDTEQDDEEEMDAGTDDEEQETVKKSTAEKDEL

SMILES: Cc1nn(-c2cc(N[C@H]3CC[C@H](O)CC3)c3c(=O)[nH]c(C(C)C)cc3c2)c2c1C(=O)CC(C)(C)C2
IC50 [1]: 51 nM | IC50 [2]: 173 nM

SMILES: CCCc1cc2cc(-n3nc(C)c4c3CC(C)(C)CC4=O)cc(N3CCNCC3)c2c(=O)[nH]1
IC50 [1]: 4470 nM | IC50 [2]: > 50000 nM

SMILES: Cc1cc2cc(-n3nc(C)c4c3CC(C)(C)CC4=O)cc(N[C@H]3CC[C@H](O)CC3)c2c(=O)[nH]1
IC50 [1]: 101 nM | IC50 [2]: 294 nM

SMILES: CCCc1cc2cc(-n3nc(C)c4c3CC(C)(C)CC4=O)cc(N3CCC(O)CC3)c2c(=O)[nH]1
Activity (SK-BR-3 [3]): Non-Toxic

SMILES: COCc1cc2cc(-n3nc(C)c4c3CC(C)(C)CC4=O)cc(N[C@H]3CC[C@H](O)CC3)c2c(=O)[nH]1
IC50 [1]: 159 nM | IC50 [2]: 306 nM

IC50 [1]: > 5000 nM | IC50 [2]: > 10000 nM
SMILES: CCCC1Cc2cc(-n3nc(C)c4c3CC(C)(C)CC4=O)cc(N3CCC(O)CC3)c2C(=O)N1 (stereo not drawn)

SMILES: CCCc1cc2cc(-n3nc(C)c4c3CC(C)(C)CC4=O)cc(N(C)CCN(CC)CC)c2c(=O)[nH]1
IC50 [1]: 4460 nM | IC50 [2]: > 50000 nM

SMILES: CCCc1cc2cc(-n3nc(C)c4c3CC(C)(C)CC4=O)cc(N3CCN(C(=O)OC(C)(C)C)CC3)c2c(=O)[nH]1
IC50 [1]: 463 nM | IC50 [2]: > 50000 nM

SMILES: CCCCc1cc2cc(-n3nc(C)c4c3CC(C)(C)CC4=O)cc(N[C@H]3CC[C@H](O)CC3)c2c(=O)[nH]1
IC50 [1]: 156 nM | IC50 [2]: > 50000 nM

SMILES: Cc1nn(-c2cc(N[C@H]3CC[C@H](O)CC3)c3c(=O)[nH]c(CO)cc3c2)c2c1C(=O)CC(C)(C)C2
IC50 [1]: 233 nM | IC50 [2]: 824 nM

SMILES: Cc1nn(-c2cc(N[C@H]3CC[C@H](O)CC3)c3c(=O)[nH]c(CC(C)C)cc3c2)c2c1C(=O)CC(C)(C)C2
IC50 [1]: 264 nM | IC50 [2]: > 50000 nM

IC50 (Endoplasmin): > 10000 nM
SMILES: Cc1cn(-c2cc3c(c(C4CCCC4)c2)C(=O)NCC3)c2c1C(=O)CC(C)(C)C2

SMILES: CCCc1cc2cc(-n3nc(C)c4c3CC(C)(C)CC4=O)cc(N3CCOCC3)c2c(=O)[nH]1
IC50 [1]: 121 nM | IC50 [2]: > 50000 nM

SMILES: Cc1nn(-c2cc(N[C@H]3CC[C@H](O)CC3)c3c(=O)[nH]c(C(C)(C)C)cc3c2)c2c1C(=O)CC(C)(C)C2
IC50 [1]: > 50000 nM | IC50 [2]: > 50000 nM

SMILES: CCCc1cc2cc(-n3nc(C)c4c3CC(C)(C)CC4=O)cc(NC3CCN(C)CC3)c2c(=O)[nH]1
IC50 [1]: 513 nM | IC50 [2]: 17100 nM

SMILES: CCCc1cc2cc(-n3nc(C)c4c3CC(C)(C)CC4=O)cc(N3CCN(C)CC3)c2c(=O)[nH]1
IC50 [1]: 426 nM | IC50 [2]: 8520 nM

SMILES: CCCC1Cc2cc(-n3nc(C)c4c3CC(C)(C)CC4=O)cc(N[C@H]3CC[C@H](O)CC3)c2C(=O)N1 (stereo partly drawn)
GI50 [4]: < 100 nM | inhibition [5]: Active | inhibition [6]: inactive | inhibition [7]: Active | IC50 [1]: 33 nM | inhibition [8]: Active | inhibition [9]: Active | IC50 [2]: 1600 nM

SMILES: COC1=C2C[C@@H](C)C[C@H](OC)[C@H](O)[C@@H](C)/C=C(\C)[C@H](OC(N)=O)[C@@H](OC)/C=C\C=C(/C)C(=O)NC(=CC1=O)C2=O [GELDANAMYCIN]
Activity (SK-BR-3 [10]): Toxic

SMILES: CCCc1cc2cc(-n3nc(C)c4c3CC(C)(C)CC4=O)cc(N[C@H]3CC[C@H](O)CC3)c2c(=O)[nH]1
GI50 [4]: < 100 nM | GI50 (UMUC3): 450 nM | GI50 (PC-3): 1560 nM | GI50 [11]: 1070 nM

SMILES: Cc1nn(-c2cc(N[C@H]3CC[C@H](O)CC3)c3c(=O)[nH]c(C4CC4)cc3c2)c2c1C(=O)CC(C)(C)C2
IC50 [1]: 946 nM | IC50 [2]: 1880 nM

SMILES: CCc1cc2cc(-n3nc(C)c4c3CC(C)(C)CC4=O)cc(N[C@H]3CC[C@H](O)CC3)c2c(=O)[nH]1
IC50 [1]: 68 nM | IC50 [2]: 180 nM

IC50 (Endoplasmin): 8480 nM
SMILES: CC(C)c1cc(C(=O)N2Cc3ccccc3C2)c(O)c2cnoc12
